Laboratory results reported in US20100022541A1, “Chemical inhibitors of bacterial heptose synthesis, methods for their preparation and biological applications of said inhibitors” (priority 2006, published 2010).

molecular target: T1, RfaE (Escherichia coli, UniProt P76658); assay: Inhibition of the enzymatic activity of RfaE (HTS luminescent or fluorescent biochemical assay); set-up: species or system E. coli; settings: dose-response, FIG. 1
T1 construct: made in house; host or cells: E. coli
Procedure: According to another object, the invention also relates to a method for assessing RfaE enzymatic activity. • Said method comprises • pre-incubating at room temperature • DMSO or inhibitor to be tested dissolved in DMSO and RfaE in an assay buffer • and either • adding a reaction mixture composed of RfaE, β-heptose-7-phosphate, ATP, in the assay buffer and incubating at room temperature • adding a revelation mixture composed of luciferase, D-luciferin and N-acetylcysteamine • measuring the luminescence intensity and converting into inhibition % to further calculate the IC50 values; • or • adding a reaction mixture composed of RfaE, β-heptose-7-phosphate ATP, pyruvate kinase, phosphoenolpyruvate, lactate dehydrogenase and NADH in said assay buffer, • measuring the fluorescence intensity of NADH kinetically and deriving inhibition % from fitted initial velocities, to further calculate the IC50 values.
Inhibition of the Enzymatic Activity of RfaE
RfaE is a kinase belonging to the ribokinase family. It catalyses an essential step of the biosynthesis of L-ADP-Heptose, namely the phosphorylation of β-heptose-7-phosphate (H7P) into β-heptose-1,7-bisphosphate (H17P). RfaE assays as described in the literature are essentially based on direct HLPC detection of the substrates H7P and ATP, and of the products H17P and ADP, raising obvious limitations for HTS applications. The assays described below are based either on luminescent ATP detection, or on fluorescent ADP detection. They are easily amenable to miniaturized formats and fast readouts as required by HTS.
The assay buffer “AB” contains 50 mM Hepes pH7.5, 1 mM MnCl2, 25 mM KCl, 0.012% Triton-X100 and 1 mM DTT. The following components are added in a white polystyrene Costar plate up to a final volume of 31 μL: 3 μL DMSO, or inhibitor dissolved in DMSO and 28 μL RfaE in AB. After 30 min of pre-incubation at room temperature, 29 μL of Substrates mix in AB are added in each well to a final volume of 60 μL. This reaction mixture is then composed of 3 nM RfaE (produced in house from E. coli), 0.2 μM β-heptose-7-phosphate (in house synthesis) and 0.2 μM ATP (Sigma) in assay buffer. After 40 min of incubation at room temperature, 200 μL of the revelation mix are added to a final volume of 260 μL, including the following constituents at the respective final concentrations: 2 nM luciferase (Sigma), 30 μM D-luciferin (Sigma), 100 μM N-acetylcysteamine (Aldrich). Luminescence intensity is immediately measured on an Analyst-HT (Molecular Devices) and converted into inhibition percentages. For IC50 determinations, the inhibitor is tested at 6 to 10 different concentrations, and the related inhibitions are fitted to a classical langmuir equilibrium model using XLFIT (IDBS).
The assay buffer “AB” contains 50 mM Hepes pH7.5, 1 mM MnCl2, 25 mM KCl, 0.012% Triton-X100 and 1 mM DTT. The following components are added in a black polystyrene Costar plate up to a final volume of 50 μL: 5 μL DMSO, or inhibitor dissolved in DMSO and 45 μL RfaE in AB. After 30 min of pre-incubation at room temperature, 50 μL of Substrates-revelation mix in AB are added in each well to a final volume of 100 μL. This reaction mixture is then composed of 66 μM RfaE (produced in house from E. coli), 1 μM β-heptose-7-phosphate (in house synthesis), 50 μM ATP (Sigma), 5 u/mL Pyruvate Kinase (Sigma), 50 μM phosphoenolpyruvate (Sigma), 5 u/mL Lactate dehydrogenase (Sigma) and 2.5 μM NADH (Sigma) in assay buffer. Fluorescence intensity of NADH (λex=360 nm, λem=520 nm) is immediately measured kinetically by a Fluostar Optima (BMG). Inhibition percentages are derived from fitted initial velocities. For IC50 determinations, the inhibitor is tested at 6 to 10 different concentrations, and the related inhibitions are fitted to a classical langmuir equilibrium model using XLFIT (IDBS).

T1 sequence (P76658 whole entry): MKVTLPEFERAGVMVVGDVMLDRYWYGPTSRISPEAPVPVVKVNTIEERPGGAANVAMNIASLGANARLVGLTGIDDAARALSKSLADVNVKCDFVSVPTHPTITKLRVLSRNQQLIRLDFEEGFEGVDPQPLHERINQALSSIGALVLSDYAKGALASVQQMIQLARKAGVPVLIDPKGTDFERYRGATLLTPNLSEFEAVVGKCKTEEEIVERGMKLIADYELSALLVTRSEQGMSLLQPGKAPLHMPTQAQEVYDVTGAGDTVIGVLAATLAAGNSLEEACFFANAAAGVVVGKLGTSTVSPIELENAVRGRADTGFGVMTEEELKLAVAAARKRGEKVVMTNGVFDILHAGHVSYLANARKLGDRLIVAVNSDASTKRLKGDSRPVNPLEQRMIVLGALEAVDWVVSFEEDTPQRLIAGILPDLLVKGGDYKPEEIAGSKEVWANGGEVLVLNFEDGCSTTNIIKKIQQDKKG

With `Cc1oc(-c2cccc([N+](=O)[O-])c2)nc1C(=O)N(CC(=O)O)Cc1ccccn1` [Example XXIII, [{[5-methyl-2-(3-nitrophenyl)-1,3-oxazol-4-yl]carbonyl}(pyridin-2-ylmethyl)amino]acetic Acid] the “Inhibition of RfaE biochemical activity (FIG. 1)” value was “Dose Dependent Inhibition”.

same assay, conditions: inhibitor tested at 6 to 10 concentrations; 30 min pre-incubation at room temperature

Going from `Cc1nn(-c2ccccc2)nc1C(=O)N(CC(=O)O)Cc1ccccn1` [XI, [[(5-methyl-2-phenyl-2H-1,2,3-triazol-4-yl)carbonyl](pyridin-2-ylmethyl)amino]acetic Acid] to `COc1cccc(-c2nc(C)c(C(=O)N(CC(=O)O)C(C)c3ccccn3)o2)c1` (centres unmarked) [XXXV, [{[2-(3-methoxyphenyl)-4-methyl-1,3-oxazol-5-yl]carbonyl}(1-pyridin-2-ylethyl)amino]acetic Acid], the IC50 falls from 48 µM to 19.2 µM (2.5-fold).

Going from `Cc1oc(-c2cccc([N+](=O)[O-])c2)nc1C(=O)N(CC(=O)O)Cc1ccccn1` [Example XXIII, [{[5-methyl-2-(3-nitrophenyl)-1,3-oxazol-4-yl]carbonyl}(pyridin-2-ylmethyl)amino]acetic Acid] to `Cc1oc(-c2cccc(C(F)(F)F)c2)nc1C(=O)N(CC(=O)O)Cc1ccccn1` [XIV, [({5-methyl-2-[3-(trifluoromethyl)phenyl]-1,3-oxazol-4-yl}carbonyl)(pyridin-2-ylmethyl)amino]acetic Acid], the IC50 rises from 3.8 µM to 35 µM (9.2-fold). The first is the more potent here.

First: [{[2-(4-bromophenyl)-5-methyl-1,3-oxazol-4-yl]carbonyl}(pyridin-2-ylmethyl)amino]acetic Acid [XVII]
Second: CC(=O)c1cccc(-c2nc(C)c(C(=O)N(CC(=O)O)Cc3ccccn3)s2)c1 [XXXVI, [{[2-(3-acetylphenyl)-4-methyl-1,3-thiazol-5-yl]carbonyl}(pyridin-2-ylmethyl)amino]acetic Acid]
The IC50 of the first is 8-fold lower: 27 µM for the first, 216 µM for the second. The first is the more potent here.

First: Cn1nc(-c2ccccc2)cc1C(=O)N(CC(=O)O)Cc1ccccn1 [VIII, [[(1-methyl-3-phenyl-1H-pyrazol-5-yl)carbonyl](pyridin-2-ylmethyl)amino]acetic Acid]
Second: Cc1nc(-c2ccc(N)c([N+](=O)[O-])c2)sc1C(=O)N(CC(=O)O)Cc1ccccn1 [XXXVII, [{[2-(4-amino-3-nitrophenyl)-4-methyl-1,3-thiazol-5-yl]carbonyl}(pyridin-2-ylmethyl)amino]acetic Acid]
The IC50 of the first is 4.4-fold higher: 57 µM for the first, 12.9 µM for the second. The second is the more potent here.

Going from `Cc1oc(-c2ccccc2)nc1C(=O)N(CC(=O)O)Nc1ccccn1` [XXXI, {1-[(5-methyl-2-phenyl-1,3-oxazol-4-yl)carbonyl]-2-pyridin-2-ylhydrazino}acetic Acid] to `Cc1oc(-c2ccccc2C(F)(F)F)nc1C(=O)N(CC(=O)O)Cc1ccccn1` [XV, [({5-methyl-2-[2-(trifluoromethyl)phenyl]-1,3-oxazol-4-yl}carbonyl)(pyridin-2-ylmethyl)amino]acetic Acid], the IC50 rises from 65 µM to 121 µM (1.9-fold).

Going from `Cc1nc(-c2ccc(Cl)cc2)oc1C(=O)N(CC(=O)O)Cc1ccccn1` [V, [{[2-(4-chlorophenyl)-4-methyl-1,3-oxazol-5-yl]carbonyl}(pyridin-2-ylmethyl)amino]acetic acid] to `COc1cccc(-c2nc(C)c(C(=O)N(CC(=O)O)Cc3nc4ccccc4s3)o2)c1` [XXIX, ((1,3-benzothiazol-2-ylmethyl){[2-(3-methoxyphenyl)-4-methyl-1,3-oxazol-5-yl]carbonyl}amino)acetic Acid], the IC50 falls from 54 µM to 0.24 µM (220-fold).

Going from `COc1cccc(-c2nc(C(=O)N(CC(=O)O)Cc3ccc4ccccc4n3)c(C)o2)c1` [XXXIV, [{[2-(3-methoxyphenyl)-5-methyl-1,3-oxazol-4-yl]carbonyl}(quinolin-2-ylmethyl)amino]acetic Acid] to `O=C(O)CN(Cc1ccccn1)C(=O)c1nc(-c2ccccc2)oc1COCc1ccccc1` [I, {[[5-(benzyloxy)methyl-2-phenyl-1,3-oxazol-4-yl]carbonyl](pyridin-2-ylmethyl)amino}acetic Acid], the IC50 rises from 12 µM to 265 µM (22-fold). The first is the more potent here.

First: Cc1oc(-c2ccccc2N)nc1C(=O)N(CC(=O)O)Cc1ccccn1 [XXVI, [{[2-(2-aminophenyl)-5-methyl-1,3-oxazol-4-yl]carbonyl}(pyridin-2-ylmethyl)amino]acetic Acid]
Second: Cc1oc(-c2ccc(C(F)(F)F)cc2)nc1C(=O)N(CC(=O)O)Cc1ccccn1 [XVI, [({5-methyl-2-[4-(trifluoromethyl)phenyl]-1,3-oxazol-4-yl}carbonyl)(pyridin-2-ylmethyl)amino]acetic Acid]
The IC50 of the first is 4.6-fold lower: 31 µM for the first, 142 µM for the second.

Compared with `Cc1nc(-c2ccccc2)oc1C(=O)N(CC(=O)O)Cc1ccccn1` [VI, [[(4-methyl-2-phenyl-1,3-oxazol-5-yl)carbonyl](pyridin-2-ylmethyl)amino]acetic Acid], `Cc1oc(-c2cccc(Br)c2)nc1C(=O)N(CC(=O)O)Cc1ccccn1` [XVIII, [{[2-(3-bromophenyl)-5-methyl-1,3-oxazol-4-yl]carbonyl}(pyridin-2-ylmethyl)amino]acetic Acid] is 7.1-fold lower in IC50: 71 µM for the first, 10 µM for the second.

Going from `Cc1oc(-c2ccccc2Br)nc1C(=O)N(CC(=O)O)Cc1ccccn1` [XIX, [{[2-(2-bromophenyl)-5-methyl-1,3-oxazol-4-yl]carbonyl}(pyridin-2-ylmethyl)amino]acetic Acid] to `Cc1nc(-c2cccc([N+](=O)[O-])c2)sc1C(=O)N(CC(=O)O)Cc1nc2ccccc2s1` [XXXIX, ((1,3-benzothiazol-2-ylmethyl){[4-methyl-2-(3-nitrophenyl)-1,3-thiazol-5-yl]carbonyl}amino)acetic Acid], the IC50 falls from 44 µM to 0.5 µM (88-fold).

`CC(=O)Oc1cccc(-c2nc(C)c(C(=O)N(CC(=O)O)Cc3ccccn3)o2)c1` [IV, [({2-[3-(acetyloxy)phenyl]-4-methyl-1,3-oxazol-5-yl}carbonyl)(pyridin-2-ylmethyl)amino]acetic Acid] and `Cc1oc(-c2ccc(O)cc2)nc1C(=O)N(CC(=O)O)Cc1ccccn1` [XXIV, [{[2-(4-hydroxyphenyl)-5-methyl-1,3-oxazol-4-yl]carbonyl}(pyridin-2-ylmethyl)amino]acetic Acid] are within 1.5-fold of each other in IC50: 52 µM for the first, 39 µM for the second.

Going from `COc1ccc(-c2nc(C(=O)N(CC(=O)O)Cc3ccccn3)c(C)o2)cc1` [Example XXI, [{[2-(4-methoxyphenyl)-5-methyl-1,3-oxazol-4-yl]carbonyl}(pyridin-2-ylmethyl)amino]acetic Acid] to `Cc1oc(-c2ccccc2[N+](=O)[O-])nc1C(=O)N(CC(=O)O)Cc1ccccn1` [Example XXII, [{[5-methyl-2-(2-nitrophenyl)-1,3-oxazol-4-yl]carbonyl}(pyridin-2-ylmethyl)amino]acetic Acid], the IC50 rises from 75 µM to 141 µM (1.9-fold). The first is the more potent here.

With `Cc1nc(-c2ccc3[nH]ccc3c2)sc1C(=O)N(CC(=O)O)Cc1nc2ccccc2s1` [XXXVIII, ((1,3-benzothiazol-2-ylmethyl){[2-(1H-indol-5-yl)-4-methyl-1,3-thiazol-5-yl]carbonyl}amino)acetic Acid] the IC50 was 0.33 µM.
